# In patent US7807688B2, “Tri-heterocyclic compounds and a pharmaceutical comprising them as an active ingredient” (Ono Pharmaceutical Co., Ltd., priority 2000, dated 2010):
# Test system: male SD rats
# Assay: Measurement of antianxiety activity using the elevated plus-maze
# Format: in vivo, rat
# Details: 3 and 10 mg/kg, 30 minutes after administration, 5 minutes period
# Experimental: Two arms (open and closed) of equal width and length (50 cm×10 cm), which crossed at a right angle to form a plus maze, were elevated to a height 50 cm above the ground level. […] Lighting on both ends of the open arm was maintained at constant illumination. Thirty minutes after administration of various doses of test-compounds (5 mL/kg), male SD rats were placed in the center of the plus maze. The time spent(s) in the open arms and the number of entries into the respective arms were measured within a 5 minutes period. The investigation personnel for measuring the indexes positioned at a fixed location during the course of the experiment.
smiles,measurement,setting,value
"CCC(CC)Nc1c2c(nc3c(-c4ccc(OC)cc4Cl)c(C)nn13)CCC2.Cl [Example 2(78), 8-(3-pentylamino)-2-methyl-3-(2-chloro-4-methoxyphenyl)-6,7-dihydro-5H-cyclopenta[d]pyrazolo[1,5-a]pyrimidine hydrochloride]",time spent in the open arms,FIG. 1,extend significantly
same,number of entries into the open arms,FIG. 2,increased significantly
